These results are taken from patent publication US20230391765A1, “HETEROBIFUNCTIONAL COMPOUNDS AS DEGRADERS OF ENL” (ICAHN SCHOOL OF MEDICINE AT MOUNT SINAI, priority 2020, published 2023).

One assay has as its target T1, GAS41 (Homo sapiens, UniProt O95619).
T1 construct: host or cells: MV4;11
The assay can be described thus: Western blot of GAS41 protein level in MV4; 11 cells. In kind it is cell-based. The note with it: 11 cells, 0.3, 1, 3, 10 and 30 μM for 24 h. As for the experimental part: MV4; 11 cells were treated with LQ076-122, or LQ081-107 at 0.3, 1, 3, 10, and 30 μM for 24 h. DMSO treated cells were used as control. Cells were lysed and expression of ENL and GAS41 was assessed by Western analysis.
After ENL degrader treatment, cells were collected, lysed, and total cell lysates were used for Western blot. The following primary antibodies were used: ENL (Cell Signaling Technology), GAS41 (Santa Cruz), GAPDH (Santa Cruz), β-actin (Sigma). Blots were detected using HRP-conjugated secondary antibodies.
In general terms: In western blotting, separated proteins are transferred to a membrane and probed.

Another assay concerns ENL target genes. Description: RT-qPCR of ENL target genes in MV4; 11 cells. The note with it: 11 cells, 1, 2 and 4 μM for 6, 12, 18 and 24 h. In kind it is cell-based. The procedure:
MV4; 11 cells were treated with DMSO, or LQ076-122 at 1, 2, and 4 μM for 6, 12, 18 and 24 h. RT-qPCR analysis was performed to detect the mRNA levels of selected ENL target genes.
Total RNA was extracted using the RNeasy Plus kit (Qiagen) and reverse-transcribed using the iScript cDNA Synthesis kit (Bio-Rad). RT-qPCR was performed using the Power SYBR Green PCR Master Mix (Applied Biosystems) on the CFX96 Real-Time PCR system (Bio-Rad). Gene expressions were calculated following normalization to 18s rRNA amounts using the comparative cycle threshold (Ct) method.
On the technique in general: Real-time PCR tracks product formation cycle by cycle.

T1 sequence (O95619 whole entry): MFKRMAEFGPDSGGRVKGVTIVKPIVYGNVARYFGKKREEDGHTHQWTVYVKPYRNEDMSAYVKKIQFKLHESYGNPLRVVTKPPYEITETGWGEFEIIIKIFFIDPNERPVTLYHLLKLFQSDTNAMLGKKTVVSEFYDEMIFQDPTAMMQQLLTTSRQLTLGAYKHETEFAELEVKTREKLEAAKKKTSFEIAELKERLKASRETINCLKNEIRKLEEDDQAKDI

With `Cc1ncsc1-c1ccc(CNC(=O)[C@@H]2C[C@@H](O)CN2C(=O)[C@@H](NC(=O)CCCCCCCCCCNC(=O)c2ccc(C(=O)Nc3ccc4[nH]c(CN5CCC[C@@H]5C)nc4c3)cc2)C(C)(C)C)cc1` [LQ076-122, N^1-(11-(((S)-1-((2S,4R)-4-hydroxy-2-((4-(4-methylthiazol-5-yl)benzyl)carbamoyl)pyrrolidin-1-yl)-3,3-dimethyl-1-oxobutan-2-yl)amino)-11-oxoundecyl)-N^4-(2-(((S)-2-methylpyrrolidin-1-yl)methyl)-1H-benzo[d]imidazol-5-yl)terephthalamide], the “reduction of GAS41 protein level” value at GAS41 was “but not the level of another YEATS domain-containing protein GAS41”. Further, in the assay on ENL target genes, the “ENL target gene expression (mRNA levels)” value was “reduced ENL target gene expression in a concentration- and time-dependent manner”.
